BindingDB's records for doi:10.3109/14756366.2011.649267 (South Dakota State University, 2013)

Target: T1, Glutaredoxin-1 (Human, UniProt P35754)
T1 sequence (P35754 whole entry): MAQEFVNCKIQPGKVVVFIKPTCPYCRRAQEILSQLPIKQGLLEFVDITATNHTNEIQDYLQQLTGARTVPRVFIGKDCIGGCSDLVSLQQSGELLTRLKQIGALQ
Assay: GRX Assay
Conditions: pH 8; 25 °C
Experimental: Human GRX-1 (0.25 unit/mL) was incubated at 25 °C with increasing concentrations of 2-AAPA (25, 50, 100, and 200 μM) and BSA (1 mg/mL). Aliquots were withdrawn for determination of GRX activity at 3, 10, and 20 min. Control incubations without 2-AAPA were conducted in parallel. The aliquots were added to the GRX assay solution, and enzyme activity was determined from a coupled reaction with GR based on a literature reported procedure with minor modification. In this assay, a mixed disulfide between GSH and the mercaptoethanol moiety derived from 2-hydroxyethyldisulfide (HED) served as the substrate for GRX; briefly GSH (10 mM) and HED (7 mM) were premixed in water for 5 min before transferring onto ice. The final GRXassay solution contained GSH (1 mM), HED (0.7mM), GR (0.02 units/mL), NADPH (0.2 mM), and bovine serum albumin (BSA, 1 mg/mL) in Trisbuffer (pH 8, 0.1 M). Theactivity was determined by monitoring the disappearance of NADPH spectrophotometrically at λ = 340 nm [Holmgren et al., Meth. Enzymol., 252:283-292].

Ki: 91.3 µM
SMILES: CC(=O)NC(CSC(=S)Nc1ccc(NC(=S)SCC(NC(C)=O)C(=O)O)cc1)C(=O)O (stereo unspecified) [2-AAPA]
